Assay results taken from US9302999B2, “Substituted triazoles as herbicides” (E. I. DU PONT DE NEMOURS AND COMPANY, priority 2012, dated 2016).

How the values were obtained:
Format in all cases: in vivo
[1] = test system: velvetleaf (Abutilon theophrasti); experiment: Test A pre-/postemergence: velvetleaf
In short: (§1)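 Injury was scored visually on a 0 (no effect) to 100 (complete control) scale versus untreated controls roughly ten days after treatment in the greenhouse. Compounds, formulated in surfactant-containing non-phytotoxic solvent, went on as soil-directed preemergence spray or postemergence to one- to two-leaf plants 2–10 cm tall.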

[2] = test system: barnyardgrass (Echinochloa crus-galli); experiment: Test B flooded paddy: barnyardgrass; details: Flood, applied to paddy water at 2-leaf stage, visually evaluated after 13 to 15 days
In short: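 Visual ratings (0 = no effect, 100 = complete control) versus untreated controls were taken 13–15 days after treatment of greenhouse plants. Treatment was added to paddy water held at 3 cm depth on 2-leaf-stage seedlings.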

[3] = test system: barnyardgrass (Echinochloa crus-galli); experiment: Test A pre-/postemergence: barnyardgrass
In short: as §1

[4] = test system: rice (Oryza sativa); experiment: Test B flooded paddy: rice; details: Flood, applied to paddy water at 2-leaf stage, visually evaluated after 13 to 15 days
Method: (§2) Seeds selected from rice (Oryza sativa), sedge, umbrella (small-flower umbrella sedge Cyperus difformis), ducksalad (Heteranthera limosa), and barnyardgrass (Echinochloa crus-galli) were grown to the 2-leaf stage for testing. At time of treatment, test pots were flooded to 3 cm above the soil surface, treated by application of test compounds directly to the paddy water, and then maintained at that water depth for the duration of the test.
(§3) Treated plants and controls were maintained in a greenhouse for 13 to 15 days, after which time all species were compared to controls and visually evaluated. Plant response ratings, summarized in Table B, are based on a scale of 0 to 100 where 0 is no effect and 100 is complete control. A dash (-) response means no test result.

[5] = test system: corn (Zea mays); experiment: Test A pre-/postemergence: corn
In short: as §1

[6] = test system: foxtail, giant (giant foxtail, Setaria faberii); experiment: Test A pre-/postemergence: foxtail, giant
In short: as §1

[7] = test system: ducksalad (Heteranthera limosa); experiment: Test B flooded paddy: ducksalad; details: Flood, applied to paddy water at 2-leaf stage, visually evaluated after 13 to 15 days
Method: as §2, §3

[8] = test system: wheat (Triticum aestivum); experiment: Test A pre-/postemergence: wheat
In short: as §1

[9] = test system: crabgrass, large (large crabgrass, Digitaria sanguinalis); experiment: Test A pre-/postemergence: crabgrass, large
In short: as §1

[10] = test system: morningglory (Ipomoea spp.); experiment: Test A pre-/postemergence: morningglory
In short: as §1

[11] = test system: pigweed (Amaranthus retroflexus); experiment: Test A pre-/postemergence: pigweed
In short: as §1

[12] = test system: sedge, umbrella (small-flower umbrella sedge Cyperus difformis); experiment: Test B flooded paddy: sedge, umbrella; details: Flood, applied to paddy water at 2-leaf stage, visually evaluated after 13 to 15 days
Method: as §2, §3

[13] = Postemergence, 125 g ai/ha, 0 to 100 scale, 0 is no effect, 100 is complete control
[14] = Postemergence, 500 g ai/ha, visual rating on 0 to 100 scale (0 no effect, 100 complete control), approximately ten days
[15] = Preemergence, 125 g ai/ha, 0 to 100 scale where 0 is no effect and 100 is complete control
[16] = Preemergence, 500 g ai/ha, 0 to 100 scale (0 no effect, 100 complete control)
[17] = Postemergence, 500 g ai/ha, 0 to 100 scale, 0 is no effect, 100 is complete control

Structure (SMILES)	Plant response rating, Velvetleaf [1, 13]	Plant response rating, Velvetleaf [1, 15]	Plant response rating, Velvetleaf [1, 16]	Plant response rating, Barnyardgrass [3, 13]	Plant response rating, Barnyardgrass [3, 15]	Plant response rating, Barnyardgrass [3, 16]	Plant response rating, Corn [5, 13]	Plant response rating, Corn [5, 15]	Plant response rating, Corn [5, 16]	Plant response rating, Foxtail, Giant [6, 13]	Plant response rating, Foxtail, Giant [6, 15]	Plant response rating, Foxtail, Giant [6, 16]	Plant response rating, Wheat [8, 13]	Plant response rating, Wheat [8, 15]	Plant response rating, Wheat [8, 16]	Plant response rating, Crabgrass, Large [9, 13]	Plant response rating, Crabgrass, Large [9, 15]	Plant response rating, Crabgrass, Large [9, 16]	Plant response rating, Morningglory [10, 13]	Plant response rating, Morningglory [10, 15]	other results
Fc1ccc(-n2nc(F)c(Cc3ccnc(C(F)(F)F)c3)n2)cc1 [Compound 159]	20	0	0	50	10	80	20	0	0	40	40	90	0	0	0	20	10	30	60	0	Velvetleaf plant response rating [1, 14]: 60; Plant response rating, Barnyardgrass (0 to 100 scale, 0 is no effect, 100 is complete control) ([2]; 250 g ai/ha): 30; Barnyardgrass plant response rating [3, 14]: 80; Plant response rating, Rice (0 to 100 scale, 0 is no effect, 100 is complete control) ([4]; 250 g ai/ha): 30; Corn plant response rating [5, 14]: 30; Foxtail, Giant plant response rating [6, 14]: 90; Plant response rating, Ducksalad (0 to 100 scale, 0 is no effect, 100 is complete control) ([7]; 250 g ai/ha): 20; Wheat plant response rating [8, 14]: 30; Crabgrass, Large plant response rating [9, 14]: 40; Morningglory plant response rating [10, 14]: 90; Plant response rating, Morningglory [10, 16]: 0; Plant response rating, Pigweed [11, 13]: 90; Pigweed plant response rating [11, 14]: 100; Plant response rating, Pigweed [11, 15]: 70; Plant response rating, Pigweed [11, 16]: 90; Plant response rating, Sedge, Umbrella (0 to 100 scale, 0 is no effect, 100 is complete control) ([12]; 250 g ai/ha): 60
CC(C)Cc1nn(-c2ccc(C(F)(F)F)cc2)nc1Oc1ccnc(C(F)(F)F)c1 [Compound 186]	0	0	0	0	0	0	10	0	0	0	0	0	0	0	0	0	0	0	0	0	Velvetleaf plant response rating [1, 17]: 20; Plant response rating, Barnyardgrass (0 to 100 scale, 0 is no effect, 100 is complete control) ([2]; 125 g ai/ha): 0; Barnyardgrass plant response rating [3, 17]: 0; Plant response rating, Rice (0 to 100 scale, 0 is no effect, 100 is complete control) ([4]; 125 g ai/ha): 0; Corn plant response rating [5, 17]: 20; Foxtail, Giant plant response rating [6, 17]: 0; Plant response rating, Ducksalad (0 to 100 scale, 0 is no effect, 100 is complete control) ([7]; 125 g ai/ha): 0; Wheat plant response rating [8, 17]: 0; Crabgrass, Large plant response rating [9, 17]: 0; Morningglory plant response rating [10, 17]: 10; Plant response rating, Morningglory [10, 16]: 0; Plant response rating, Pigweed [11, 13]: 20; Pigweed plant response rating [11, 17]: 60; Plant response rating, Pigweed [11, 15]: 0; Plant response rating, Pigweed [11, 16]: 0; Plant response rating, Sedge, Umbrella (0 to 100 scale, 0 is no effect, 100 is complete control) ([12]; 125 g ai/ha): 0
